# Values joined by “and” are separate entries in the source; they are usually repeats but may differ in a detail not shown here. Identical values can stand only once. Like-named read-outs stand apart in the source and are kept apart here.
# Tested on: Early Stage PD patients
# Conditions: for 1 mg Early-Delayed Start Slope Difference, Estimate / 2 mg Early-Delayed Start Slope Difference, Estimate / 1 mg-Placebo Slope Difference, Estimate / 2 mg-Placebo Slope Difference, Estimate: Total UPDRS slopes; for 1 mg Early-Delayed Start Slope Difference, Estimate / 2 mg Early-Delayed Start Slope Difference, Estimate: Active Phase weeks 48-72, non-inferiority margin 0.15; for 1 mg Early-Delayed Start Slope Difference, Estimate / 1 mg-Placebo Slope Difference, Estimate / 1 mg-Placebo Week 36-12, Estimate / 1 mg Early-Delayed Start at week 72, Estimate: rasagiline 1 mg; for 2 mg Early-Delayed Start Slope Difference, Estimate / 2 mg-Placebo Slope Difference, Estimate / 2 mg-Placebo Week 36-12, Estimate / 2 mg Early-Delayed Start at week 72, Estimate: rasagiline 2 mg; for 1 mg-Placebo Slope Difference, Estimate / 2 mg-Placebo Slope Difference, Estimate: PC phase weeks 12-36, model that assumes linearity; for 1 mg-Placebo Week 36-12, Estimate / 2 mg-Placebo Week 36-12, Estimate: Total UPDRS, PC phase, alternative categorical model that compares week 36 to week 12; for outcome of the primary analysis (three hierarchal endpoints): both doses, post-hoc; for 1 mg Early-Delayed Start at week 72, Estimate / 2 mg Early-Delayed Start at week 72, Estimate: change from baseline in Total UPDRS, end of the Active Phase
# Description: 1 mg/day rasagiline during Phase I and Phase II; • Group 2. 2 mg/day rasagiline during Phase I and Phase II; • Group 3. placebo during Phase I followed by 1 mg/day rasagiline during Phase II; and • Group 4. placebo during Phase I followed by 2 mg/day rasagiline during Phase II.
# Thus, ‘early-start’ patients receive 72 weeks of treatment with rasagiline (1 or 2 mg once daily) and ‘delayed-start’ patients receive 36 weeks of placebo followed by 36 weeks of rasagiline (1 or 2 mg once daily). […] If subjects in either treatment group required additional anti-parkinsonian medication during the placebo-controlled stage of the trial, they could proceed directly to Phase II. Once in Phase II, no additional anti-PD therapy is permitted. If the patient requires additional medication in this stage they are discontinued from the study.
# 1 mg/day rasagiline during Phase I and Phase II (1 mg early start) • 2. 2 mg/day rasagiline during Phase I and Phase II (2 mg early start) • 3. placebo during Phase I followed by 1 mg/day rasagiline during Phase II (1 mg delayed start) • 4. placebo during Phase I followed by 2 mg/day rasagiline during Phase II (2 mg delayed start)
# If, at any stage during the placebo-controlled phase the investigator determines that a subject needs additional anti-PD therapy, the subject will proceed to Phase II of the study. The investigator, aided by a questionnaire, will give careful consideration to the issue of a subject's need for additional anti-PD therapy. Scheduled in-clinic visits will be conducted at baseline and at weeks 4, 12, 24 and 36. Therefore, altogether there will be 5 scheduled visits during this phase. Unscheduled visits may be conducted at any time to assess a subject's need for additional anti-PD therapy, for safety reasons or for any other reason.
# Thus, subjects who receive 1 mg rasagiline during Phase I will continue to receive 1 mg during Phase II, subjects who receive 2 mg rasagiline during Phase I will continue to receive 2 mg during Phase II, and subjects who receive placebo during Phase I will receive either 1 mg or 2 mg rasagiline during Phase II. The study blind will be maintained. No additional anti-PD therapy will be permitted during this phase. This applies to both the subjects who enter Phase II after completing the full 36-week duration of Phase I and to subjects who are switched from Phase I to Phase II because of a need of additional anti-PD therapy. If, the investigator determines that a subject needs additional anti-PD therapy during Phase II, the subject will be prematurely withdrawn from the study. The investigator, aided by a questionnaire, will give careful consideration to the issue of a subject's need for additional anti-PD therapy. Scheduled in-clinic visits will be conducted every 6 weeks. Therefore, altogether there will be 6 visits during this phase—at weeks 42, 48, 54, 60, 66 and 72. Unscheduled visits may be conducted at any time to assess a subject's need for additional anti-PD therapy, for safety reasons or for any other reason.
# [1] = rasagiline 1 mg/day delayed-start, Baseline UPDRS > 25.5 (Upper Quartile)
# [2] = rasagiline 1 mg/day delayed-start, Baseline UPDRS ≦ 25.5 (Lower 3 Quartiles)
# [3] = rasagiline 1 mg/day delayed-start, all subjects
# [4] = rasagiline 1 mg/day delayed-start, all subjects, listed as Rasagiline
# [5] = rasagiline 1 mg/day early-start minus delayed-start, Baseline UPDRS > 25.5 (Upper Quartile)
# [6] = rasagiline 1 mg/day early-start minus delayed-start, Baseline UPDRS ≦ 25.5 (Lower 3 Quartiles)
# [7] = rasagiline 1 mg/day early-start, Baseline UPDRS > 25.5 (Upper Quartile)
# [8] = rasagiline 1 mg/day early-start, Baseline UPDRS ≦ 25.5 (Lower 3 Quartiles)
# [9] = rasagiline 1 mg/day early-start, all subjects
# [10] = rasagiline 1 mg/day early-start, all subjects, listed as Rasagiline
structure (smiles),measurement,setting,value
C#CCN[C@@H]1CCc2ccccc21 [rasagiline],Disease modifying effect,"1 mg treatment, according to FDA requirements as predefined in the statistical analysis plan",demonstrated
same,Disease modifying effect,2 mg treatment,not evident
same,symptomatic effect observed in TEMPO,"ADAGIO placebo controlled (PC) phase, rasagiline 1 mg and 2 mg versus placebo",replicated
same,change in Total UPDRS score at week 72,"Early Stage PD patients, dose not stated",2.8
same,rate of progression of PD,"Early Stage PD patients, improved from 0.139, dose not stated",0.066 score (change in Total UPDRS)/week
same,"1 mg Early-Delayed Start Slope Difference, Estimate",ACTE,0.000
same,"1 mg Early-Delayed Start Slope Difference, Estimate",CO,−0.011
same,"1 mg Early-Delayed Start Slope Difference, Estimate",PP,−0.011
same,"2 mg Early-Delayed Start Slope Difference, Estimate",ACTE,0.029
same,"2 mg Early-Delayed Start Slope Difference, Estimate",CO,0.021
same,"2 mg Early-Delayed Start Slope Difference, Estimate",PP,0.022
same,"1 mg-Placebo Slope Difference, Estimate",CO data analysis set,−0.033
same,"1 mg-Placebo Slope Difference, Estimate",ITT data analysis set,−0.046
same,"1 mg-Placebo Slope Difference, Estimate",PP data analysis set,−0.037
same,"2 mg-Placebo Slope Difference, Estimate",CO data analysis set,−0.061
same,"2 mg-Placebo Slope Difference, Estimate",ITT data analysis set,−0.072
same,"2 mg-Placebo Slope Difference, Estimate",PP data analysis set,−0.065
same,"1 mg-Placebo Week 36-12, Estimate",CO,−0.799
same,"1 mg-Placebo Week 36-12, Estimate",ITT,−1.043
same,"1 mg-Placebo Week 36-12, Estimate",PP,−0.873
same,"2 mg-Placebo Week 36-12, Estimate",CO,−1.463
same,"2 mg-Placebo Week 36-12, Estimate",ITT,−1.668
same,"2 mg-Placebo Week 36-12, Estimate",PP,−1.553
same,"difference in change in Total UPDRS score vs delayed treatment, maintained","between Week 48 and Week 72, dose not stated",1.7 score
same,outcome of the primary analysis (three hierarchal endpoints),lower three quartiles of baseline UPDRS scores (≦25.5),neither dose met all of the primary endpoints
same,outcome of the primary analysis (three hierarchal endpoints),upper quartile of baseline total UPDRS (>25.5),met all 3 primary endpoints
same,"1 mg Early-Delayed Start at week 72, Estimate",ACTE data analysis set,−1.680
same,"1 mg Early-Delayed Start at week 72, Estimate",CO data analysis set,−1.592
same,"1 mg Early-Delayed Start at week 72, Estimate",PP data analysis set,−1.594
same,"2 mg Early-Delayed Start at week 72, Estimate",ACTE data analysis set,0.356
same,"2 mg Early-Delayed Start at week 72, Estimate",CO data analysis set,−0.088
same,"2 mg Early-Delayed Start at week 72, Estimate",PP data analysis set,−0.024
same,reduction in Total UPDRS score at week 72,corresponding to change of 2.8 at week 72,62.2%
same,duration for which benefits of early treatment are sustained,early treatment vs later initiation,at least 18 months
same,Primary 2: estimated change in total UPDRS from baseline to week 72,[1],5.41
same,"Primary 3: rate of change in UPDRS, weeks 48-72",[1],0.095 UPDRS units/wk
same,Primary 2: estimated change in total UPDRS from baseline to week 72,[2],4.03
same,"Primary 3: rate if change in UPDRS, weeks 48-72",[2],0.08 UPDRS units/wk
same,Primary 2: estimated change in total UPDRS from baseline to week 72,[3],4.50
same,"Primary 3: rate of change in UPDRS, weeks 48-72",[3],0.085 UPDRS units/wk
same,Primary 2: estimated change in total UPDRS from baseline to week 72,[4],4.52±0.56
same,"Primary 3: rate of change in UPDRS, weeks 48-72",[4],0.085±0.02 UPDRS units/wk
same,"Primary 2: estimated change in total UPDRS from baseline to week 72, early-start-delayed-start",[5],−3.40±1.66 and −3.40
same,"Primary 3: rate of change in UPDRS, weeks 48-72, early-start-delayed-start",[5],−0.02 UPDRS units/wk
same,"Primary 2: estimated change in total UPDRS from baseline to week 72, early-start-delayed-start",[6],−1.08
same,"Primary 3: rate if change in UPDRS, weeks 48-72, early-start-delayed-start",[6],0.004 UPDRS units/wk
same,"Primary 2: estimated change in total UPDRS from baseline to week 72, early-start-delayed-start","rasagiline 1 mg/day early-start minus delayed-start, all subjects",−1.68±0.75 and −1.68
same,"Primary 3: rate of change in UPDRS, weeks 48-72, early-start-delayed-start","rasagiline 1 mg/day early-start minus delayed-start, all subjects, non-inferiority margin 0.15",0.00 UPDRS units/wk
same,Primary 2: estimated change in total UPDRS from baseline to week 72,[7],2.01
same,"Primary 3: rate of change in UPDRS, weeks 48-72",[7],0.075 UPDRS units/wk
same,Primary 2: estimated change in total UPDRS from baseline to week 72,[8],2.94
same,"Primary 3: rate if change in UPDRS, weeks 48-72",[8],0.09 UPDRS units/wk
same,Primary 2: estimated change in total UPDRS from baseline to week 72,[9],2.82
same,"Primary 3: rate of change in UPDRS, weeks 48-72",[9],0.085 UPDRS units/wk
same,Primary 2: estimated change in total UPDRS from baseline to week 72,[10],2.82±0.53
same,"Primary 3: rate of change in UPDRS, weeks 48-72",[10],0.085±0.02 UPDRS units/wk
